ChEMBL document CHEMBL1156695, “The novel primaquine derivatives of N-alkyl, cycloalkyl or aryl urea: synthesis, cytostatic and antiviral activity evaluations” (Eur J Med Chem, 2008)
Active and inactive are the calls of the source. No cut-off for these calls is given here.

How the values were obtained:
MCF7 = assay: Cytostatic activity against human MCF7 cells after 72 hrs by MTT assay; format: functional, cell-based; conditions: MCF7, 72 h
[1] = Cytotoxicity against HEL cells assessed as change in cell morphology; format: cell-based; conditions: human
L1210 = assay: Cytostatic activity against mouse L1210 cells after 72 hrs by MTT assay; format: functional, cell-based; conditions: L1210, 72 h
Human betaherpesvirus 5 [2] = assay: Antiviral activity against HCMV AD169 infected in HEL cells assessed as reduction of virus-induced cytopathogenicity after 3 days; format: functional, organism-based; conditions: Human betaherpesvirus 5, AD169, HEL, 72 h
[3] = test system: Mammalian orthoreovirus 1; assay: Antiviral activity against Reovirus 1 infected in african green monkey Vero cells assessed as reduction of virus-induced cytopathogenicity; format: functional, organism-based
[4] = Cytostatic activity against human Molt4/C8 cells after 72 hrs by MTT assay; format: functional, cell-based; conditions: MOLT-4, 72 h
[5] = test system: Vesicular stomatitis virus; assay: Antiviral activity against vesicular stomatitis virus infected in HEL cells assessed as reduction of virus-induced cytopathogenicity; format: functional, organism-based
[6] = Cytostatic activity against human WI38 cells after 72 hrs by MTT assay; format: cell-based; conditions: WI-38, 72 h
MIA PaCa-2 = assay: Cytostatic activity against human MiaPaCa2 cells after 72 hrs by MTT assay; format: functional, cell-based; conditions: MIA PaCa-2, 72 h
CCRF-CEM = assay: Cytostatic activity against human CEM cells after 72 hrs by MTT assay; format: functional, cell-based
[7] = Cytotoxicity against HEL cells assessed as reduction in cell growth; format: cell-based; conditions: human
[8] = test system: Vesicular stomatitis virus; assay: Antiviral activity against vesicular stomatitis virus infected in HeLa cells assessed as reduction of virus-induced cytopathogenicity; format: functional, organism-based
Human alphaherpesvirus 1 = assay: Antiviral activity against HSV1 infected in HEL cells assessed as reduction of virus-induced cytopathogenicity; format: functional, organism-based
Human respirovirus 3 = assay: Antiviral activity against parainfluenza virus 3 infected in african green monkey Vero cells assessed as reduction of virus-induced cytopathogenicity; format: functional, organism-based
HeLa = assay: Cytostatic activity against human HeLa cells after 72 hrs by MTT assay; format: functional, cell-based
Coxsackievirus B4 [9] = assay: Antiviral activity against Coxsackievirus B4 infected in african green monkey Vero cells assessed as reduction of virus-induced cytopathogenicity; format: functional, organism-based
Human alphaherpesvirus 2 = assay: Antiviral activity against HSV2 infected in HEL cells assessed as reduction of virus-induced cytopathogenicity; format: functional, organism-based
Human betaherpesvirus 5 [10] = assay: Antiviral activity against HCMV Davis infected in HEL cells assessed as reduction of virus-induced cytopathogenicity after 3 days; format: functional, organism-based; conditions: Human betaherpesvirus 5, Davis, 72 h
Punta Toro virus = assay: Antiviral activity against Punta Toro virus infected in african green monkey Vero cells assessed as reduction of virus-induced cytopathogenicity; format: functional, organism-based
[11] = test system: Respiratory syncytial virus; assay: Antiviral activity against respiratory syncytial virus infected in HeLa cells assessed as reduction of virus-induced cytopathogenicity; format: functional, organism-based
SW-620 = assay: Cytostatic activity against human SW620 cells after 72 hrs by MTT assay; format: functional, cell-based; conditions: SW-620, 72 h
Coxsackievirus B4 [12] = assay: Antiviral activity against Coxsackievirus B4 infected in HeLa cells assessed as reduction of virus-induced cytopathogenicity; format: functional, organism-based
NCI-H460 = assay: Cytostatic activity against human H460 cells after 72 hrs by MTT assay; format: functional, cell-based; conditions: NCI-H460, 72 h
Sindbis virus = assay: Antiviral activity against Sindbis virus infected in african green monkey Vero cells assessed as reduction of virus-induced cytopathogenicity; format: functional, organism-based

Compound | IC50 (MCF7) [µM] | MCC [1] [µM] | IC50 (L1210) [µM] | EC50 (Human betaherpesvirus 5 [2]) [µM] | Activity [3] | IC50 [4] [µM] | Activity [5] | IC50 [6] [µM] | IC50 (MIA PaCa-2) [µM] | IC50 (CCRF-CEM) [µM] | CC50 [7] [µM] | Activity [8] | Activity (Human alphaherpesvirus 1) | Activity (Human respirovirus 3) | IC50 (HeLa) [µM] | Activity (Coxsackievirus B4 [9]) | Activity (Human alphaherpesvirus 2) | EC50 (Human betaherpesvirus 5 [10]) [µM] | Activity (Punta Toro virus) | Activity [11] | further results
COc1cc(NC(C)CCCNC(=O)NC2CCCCC2)c2ncccc2c1 (configuration not stated) | 41 | 100 | 23 | 53 | inactive | 50 | inactive | > 100 | 38 | 36 | 94 | inactive | inactive | inactive | > 100 | inactive | inactive | 10.5 | inactive | inactive | IC50 (SW-620): 49 µM; Activity (Coxsackievirus B4 [12]): inactive; IC50 (NCI-H460): 77 µM; Activity (Sindbis virus): inactive
Nc1nc(O)c2ncn(COC(CO)CO)c2n1 [GANCICLOVIR] | – | > 1580 | – | – | – | – | – | – | – | – | – | – | – | – | – | – | – | – | – | – | –
COc1cc(NC(C)CCCNC(=O)NCCc2ccccc2)c2ncccc2c1 (configuration not stated) | 27 | > 100 | 24 | 12.6 | inactive | 45 | inactive | > 100 | 30 | 34 | 56 | inactive | inactive | inactive | > 100 | inactive | inactive | 2.9 | inactive | inactive | IC50 (SW-620): 32 µM; Activity (Coxsackievirus B4 [12]): inactive; IC50 (NCI-H460): 54 µM; Activity (Sindbis virus): inactive
COc1cc(NC(C)CCCNC(=O)NCc2ccccc2)c2ncccc2c1 (configuration not stated) | 25 | 100 | 22 | > 20 | inactive | 21 | inactive | 35 | 21 | 18 | 66 | inactive | inactive | inactive | 15 | inactive | inactive | 7.6 | inactive | inactive | IC50 (SW-620): 9 µM; Activity (Coxsackievirus B4 [12]): inactive; IC50 (NCI-H460): 30 µM; Activity (Sindbis virus): inactive
COc1cc(NC(C)CCCNC(=O)NC(c2ccccc2)c2ccccc2)c2ncccc2c1 (configuration not stated) | > 100 | > 100 | > 500 | > 100 | inactive | ≥ 500 | inactive | > 100 | 100 | 142 | > 100 | inactive | inactive | inactive | 100 | inactive | inactive | > 100 | inactive | inactive | IC50 (SW-620): 58 µM; Activity (Coxsackievirus B4 [12]): inactive; IC50 (NCI-H460): > 100 µM; Activity (Sindbis virus): inactive
COc1cc(NC(C)CCCNC(=O)NCc2ccncc2)c2ncccc2c1 (configuration not stated) | 30 | 100 | 3 | 13.4 | inactive | 24 | inactive | 10 | 20 | 2.9 | 72 | inactive | inactive | inactive | 18 | inactive | inactive | 1.2 | inactive | inactive | IC50 (SW-620): 2 µM; Activity (Coxsackievirus B4 [12]): inactive; IC50 (NCI-H460): 48 µM; Activity (Sindbis virus): inactive
Nc1ccn(C[C@@H](CO)OCP(=O)(O)O)c(=O)n1 [CIDOFOVIR] | – | > 1270 | – | – | – | – | – | – | – | – | – | – | – | – | – | – | – | – | – | – | –
COc1cc(NC(C)CCCNC(=O)n2nnc3ccccc32)c2ncccc2c1 (configuration not stated) [PRIMAQUINE BENZOTRIAZOLIDE] | > 100 | > 100 | 125 | > 100 | inactive | 74 | inactive | > 100 | 84 | > 100 | 72 | inactive | inactive | inactive | 71 | inactive | inactive | > 30 | inactive | inactive | IC50 (SW-620): > 100 µM; Activity (Coxsackievirus B4 [12]): inactive; IC50 (NCI-H460): > 100 µM; Activity (Sindbis virus): inactive
CCN(CC)C(=O)NCCCC(C)Nc1cc(OC)cc2cccnc12 (configuration not stated) | > 63 | > 100 | 207 | 49 | inactive | 155 | inactive | > 100 | > 100 | 142 | > 100 | inactive | inactive | inactive | 58 | inactive | inactive | 26 | inactive | inactive | IC50 (SW-620): > 100 µM; Activity (Coxsackievirus B4 [12]): inactive; IC50 (NCI-H460): > 100 µM; Activity (Sindbis virus): inactive
COc1cc(NC(C)CCCNC(=O)NCC2CCCCC2)c2ncccc2c1 (configuration not stated) | 61 | 100 | 22 | 15.3 | inactive | 53 | inactive | > 100 | 60 | 22 | 74 | inactive | inactive | inactive | > 100 | inactive | inactive | 7.6 | inactive | inactive | IC50 (SW-620): 61 µM; Activity (Coxsackievirus B4 [12]): inactive; IC50 (NCI-H460): > 100 µM; Activity (Sindbis virus): inactive
COc1cc(NC(C)CCCNC(=O)N(C2CCCCC2)C2CCCCC2)c2ncccc2c1 (configuration not stated) | 9 | 4 | 15 | > 0.8 | inactive | 36 | inactive | 18 | 17 | 13 | 27 | inactive | inactive | inactive | 23 | inactive | inactive | > 0.8 | inactive | inactive | IC50 (SW-620): 15 µM; Activity (Coxsackievirus B4 [12]): inactive; IC50 (NCI-H460): 21 µM; Activity (Sindbis virus): inactive
COc1cc(NC(C)CCCNC(=O)NC2CCCC2)c2ncccc2c1 (configuration not stated) | 30 | 100 | 41 | > 20 | inactive | 44 | inactive | 29 | 19 | 41 | 56 | inactive | inactive | inactive | 21 | inactive | inactive | 12 | inactive | inactive | IC50 (SW-620): 19 µM; Activity (Coxsackievirus B4 [12]): inactive; IC50 (NCI-H460): 25 µM; Activity (Sindbis virus): inactive
